Tests used:
[1] = tested on: macular oedema secondary to CRVO; conditions: injected into the eye (intravitreal); cited from earlier work
[2] = in vivo
Procedure: (§1) The experimental technique was based on ocular fundus fluorescence: Five patients were used in this study. […] Then every hour, the conjunctivae of the two eyes were exposed every hour to a 10% fluorescein solution. 8 hours later the fundus fluorescence in the two eyes was measured and analysed.

[3] = ocular fundus fluorescence after topical drug carrier plus fluorescein eye drops; conditions: exposure of the conjunctival fornices to a 10% fluorescein solution; 7 hours later
Procedure: as §1

Row | anterior segment fluorescence compared with the eye receiving only fluorescein [2] | ocular fundus fluorescence compared with the eye receiving only fluorescein [2] | Compound | effect on macular oedema secondary to CRVO [1] | further results
1 | – | – | C[C@]12C=CC(=O)C=C1CC[C@H]1[C@@H]3C[C@@H](O)[C@](O)(C(=O)CO)[C@@]3(C)C[C@H](O)[C@@]12F [triancinolone (Aristocert®), triancinolone] | efficacy | –
2 | stronger | stronger | Brc1c(NC2=NCCN2)ccc2nccnc12 [brimonidine] | – | –
3 | the same | stronger | CC(C)(C)NC[C@H](O)COc1nsnc1N1CCOCC1 [timolol] | – | –
4 | – | – | O=C1OC2(c3ccc(O)cc3Oc3cc(O)ccc32)c2ccccc21 [fluorescein] | – | maximum vitreous concentration [3]: 1.5e-12 g/mL
5 | – | stronger | CNC[C@H](O)c1cccc(O)c1 [neosynephrine] | – | –
6 | – | – | bevacizumab [Avastin®] | improved | –

— patent US20110104155A1, “DRUG DELIVERY TO THE ANTERIOR AND POSTERIOR SEGMENTS OF THE EYE USING EYE DROPS” (Raouf Rekik, priority 2008, published 2011)
